Experiments:
[1] = target: Transient receptor potential cation channel subfamily M member 2 (Homo sapiens, UniProt O94759); assay: Inhibition of TRPM2 channel (unknown origin) in doxycycline-inducible human HEK-293T cells assessed as inhibition of ADPR activated current by measuring inhibition rate at +80 mV to -80 mV at 1 uM by whole-cell patch clamp electrophysiology relative to control; format: cell-based
[2] = AUC (0 to t) in mouse at 100 mg/kg, IG administered single dose; format: ADME, organism-based; settings: in vivo, po
[3] = Oral bioavailability in mouse at 100 mg/kg, IG administered single dose; format: ADME, organism-based; settings: in vivo
[4] = Cmax in mouse at 1 mg/kg, iv administered single dose; format: ADME, organism-based; settings: in vivo
[5] = Cmax in mouse at 100 mg/kg, IG administered single dose; format: ADME, organism-based; settings: in vivo, po
[6] = AUC (0 to infinitive) in mouse at 1 mg/kg, iv administered single dose; format: ADME, organism-based; settings: in vivo
[7] = Half life in mouse at 20 mg/kg, IG administered single dose; format: ADME, organism-based; settings: in vivo, po
[8] = MRT in mouse at 1 mg/kg, iv administered single dose; format: ADME, organism-based; settings: in vivo
[9] = Clearance in mouse at 1 mg/kg, iv administered single dose; format: ADME, organism-based; settings: in vivo
[10] = Oral bioavailability in mouse at 20 mg/kg, IG administered single dose; format: ADME, organism-based; settings: in vivo
[11] = Half life in mouse at 100 mg/kg, IG administered single dose; format: ADME, organism-based; settings: in vivo, po
Mus musculus [12] = assay: Neuroprotective effect against transient middle cerebral artery occlusion (tMCAO) mouse model assessed as infarct volume in TTC-stained brain slices at 3 mg/kg, iv administered 3 hrs after reperfusion (reference value: 59 +/- 2.4%); format: functional
[13] = AUC (0 to infinitive) in mouse at 20 mg/kg, IG administered single dose; format: ADME, organism-based; settings: in vivo, po
[14] = AUC (0 to t) in mouse at 20 mg/kg, IG administered single dose; format: ADME, organism-based; settings: in vivo, po
[15] = Tmax in mouse at 20 mg/kg, IG administered single dose; format: ADME, organism-based; settings: in vivo, po
[16] = AUC (0 to t) in mouse at 1 mg/kg, iv administered single dose; format: ADME, organism-based; settings: in vivo
[17] = AUC (0 to infinity) in mouse at 100 mg/kg, IG administered single dose; format: ADME, organism-based; settings: in vivo, po
Mus musculus [18] = assay: Neuroprotective effect against transient middle cerebral artery occlusion (tMCAO) mouse model assessed as infarct volume in TTC-stained brain slices at 0.3 mg/kg, iv administered 3 hrs after reperfusion (reference value: 59 +/- 2.4%); format: functional
Mus musculus [19] = assay: Neuroprotective effect against transient middle cerebral artery occlusion (tMCAO) (60 mins ischemia/24 hrs reperfusion) mouse model assessed as infarct volume in TTC-stained brain slices at 3 mg/kg, iv once daily for 7 days (reference value: 39.6 +/- 1.3%); format: functional; settings: 1 h
[20] = Tmax in mouse at 1 mg/kg, iv administered single dose; format: ADME, organism-based; settings: in vivo
Mus musculus [21] = assay: Neuroprotective effect against transient middle cerebral artery occlusion (tMCAO) mouse model assessed as infarct volume in TTC-stained brain slices at 1 mg/kg, iv administered 3 hrs after reperfusion (reference value: 59 +/- 2.4%); format: functional
[22] = MRT in mouse at 20 mg/kg, IG administered single dose; format: ADME, organism-based; settings: in vivo, po
[23] = Tmax in mouse at 100 mg/kg, IG administered single dose; format: ADME, organism-based; settings: in vivo, po
[24] = Cmax in mouse at 20 mg/kg, IG administered single dose; format: ADME, organism-based; settings: in vivo, po
Mus musculus [25] = assay: Neuroprotective effect against transient middle cerebral artery occlusion (tMCAO) mouse model assessed as infarct volume in TTC-stained brain slices at 3 mg/kg, iv administered 24 hrs after reperfusion (reference value: 4.3 +/- 0.3%); format: functional
[26] = Half life in mouse at 1 mg/kg, iv administered single dose; format: ADME, organism-based; settings: in vivo
[27] = MRT in mouse at 100 mg/kg, IG administered single dose; format: ADME, organism-based; settings: in vivo, po
Mus musculus [28] = assay: Neuroprotective effect against transient middle cerebral artery occlusion (tMCAO) mouse model assessed as infarct volume in TTC-stained brain slices at 1 mg/kg, iv administered 24 hrs after reperfusion (reference value: 4.3 +/- 0.3%); format: functional

Transient receptor potential cation channel subfamily M member 2, sequence (O94759 whole entry): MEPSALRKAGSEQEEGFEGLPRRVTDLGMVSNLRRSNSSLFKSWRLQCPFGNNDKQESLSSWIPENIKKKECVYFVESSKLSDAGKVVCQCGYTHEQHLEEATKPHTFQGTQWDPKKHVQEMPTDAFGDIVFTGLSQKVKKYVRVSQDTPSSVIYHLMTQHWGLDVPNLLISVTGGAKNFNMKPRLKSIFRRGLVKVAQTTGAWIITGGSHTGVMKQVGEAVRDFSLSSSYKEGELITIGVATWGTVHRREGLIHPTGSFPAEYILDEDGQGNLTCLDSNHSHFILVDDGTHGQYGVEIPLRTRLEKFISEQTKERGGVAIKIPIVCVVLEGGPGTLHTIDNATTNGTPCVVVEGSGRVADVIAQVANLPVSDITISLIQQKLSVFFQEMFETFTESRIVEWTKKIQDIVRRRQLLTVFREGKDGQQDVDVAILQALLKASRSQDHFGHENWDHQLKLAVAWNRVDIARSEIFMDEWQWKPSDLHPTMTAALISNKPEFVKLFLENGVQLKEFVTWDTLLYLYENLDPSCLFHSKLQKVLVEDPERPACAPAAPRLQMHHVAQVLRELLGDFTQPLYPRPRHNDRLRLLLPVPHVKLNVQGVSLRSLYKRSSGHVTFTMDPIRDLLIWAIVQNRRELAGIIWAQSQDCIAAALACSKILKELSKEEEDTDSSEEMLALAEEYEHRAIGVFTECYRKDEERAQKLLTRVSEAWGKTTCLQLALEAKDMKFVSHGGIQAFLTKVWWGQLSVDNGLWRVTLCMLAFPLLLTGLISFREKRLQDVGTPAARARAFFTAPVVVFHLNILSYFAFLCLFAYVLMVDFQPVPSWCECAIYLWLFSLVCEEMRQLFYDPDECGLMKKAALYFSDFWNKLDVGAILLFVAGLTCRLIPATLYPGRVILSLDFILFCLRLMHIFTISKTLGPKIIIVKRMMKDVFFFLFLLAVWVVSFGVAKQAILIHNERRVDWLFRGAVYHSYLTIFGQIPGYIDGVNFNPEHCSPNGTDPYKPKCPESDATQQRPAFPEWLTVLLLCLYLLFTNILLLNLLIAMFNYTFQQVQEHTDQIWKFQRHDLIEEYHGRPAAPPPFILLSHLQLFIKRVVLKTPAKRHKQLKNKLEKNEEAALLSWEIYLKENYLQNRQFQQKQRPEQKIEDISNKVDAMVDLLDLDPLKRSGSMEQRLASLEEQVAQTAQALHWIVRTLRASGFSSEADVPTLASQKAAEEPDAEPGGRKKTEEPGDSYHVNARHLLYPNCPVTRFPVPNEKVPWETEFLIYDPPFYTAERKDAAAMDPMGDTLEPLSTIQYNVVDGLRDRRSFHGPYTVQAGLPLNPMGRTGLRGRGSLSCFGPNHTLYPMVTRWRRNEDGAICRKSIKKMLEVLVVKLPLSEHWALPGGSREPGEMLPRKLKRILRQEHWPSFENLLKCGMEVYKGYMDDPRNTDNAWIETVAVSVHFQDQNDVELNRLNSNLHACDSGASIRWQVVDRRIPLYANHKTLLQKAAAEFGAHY

Question: With `O=C(c1ccccc1)c1cc(C(=O)N2CCOCC2)cc2cccn12` as the molecule, how does the IC50 [1] read?
Answer: 2890 nM

Question: With `CCN(CC)C(=O)c1cc(C(=O)c2ccccc2)n2cccc2c1` as the molecule, how does the AUC(0-t) [2] read?
Answer: 10600 ng·h/mL

Question: And the bioavailability [3]?
Answer: 48.2%

Question: What about the Cmax [4] of the same molecule?
Answer: 260 ng/mL

Question: What about the Cmax [5] of the same molecule?
Answer: 1520 ng/mL

Question: And the AUC(0-inf) [6]?
Answer: 220 ng·h/mL

Question: What about the half-life [7] of the same molecule?
Answer: 2.62 h

Question: And the MRT [8]?
Answer: 1.24 h

Question: And the clearance [9]?
Answer: 75.8 mL/min/kg

Question: And the bioavailability [10]?
Answer: 50%

Question: What about the half-life [11] of the same molecule?
Answer: 2.83 h

Question: What about the Activity (Mus musculus [12]) of the same molecule?
Answer: 30.7%

Question: And the AUC [13]?
Answer: 2410 ng·h/mL

Question: And the AUC(0-t) [14]?
Answer: 2200 ng·h/mL

Question: What about the Tmax [15] of the same molecule?
Answer: 0.83 h

Question: What about the AUC(0-t) [16] of the same molecule?
Answer: 220 ng·h/mL

Question: And the AUC [17]?
Answer: 11740 ng·h/mL

Question: And the Activity (Mus musculus [18])?
Answer: 51.5%

Question: And the Activity (Mus musculus [19])?
Answer: 23.4%

Question: What about the Tmax [20] of the same molecule?
Answer: 5.4 min

Question: And the IC50 [1]?
Answer: 2290 nM

Question: What about the Activity (Mus musculus [21]) of the same molecule?
Answer: 39.4%

Question: And the MRT [22]?
Answer: 2.65 h

Question: And the Tmax [23]?
Answer: 1.1 h

Question: And the Cmax [24]?
Answer: 330 ng/mL

Question: What about the Activity (Mus musculus [25]) of the same molecule?
Answer: 2.3%

Question: What about the half-life [26] of the same molecule?
Answer: 0.86 h

Question: And the MRT [27]?
Answer: 3.16 h

Question: With `O=C(c1ccccc1)c1cc(C(=O)N2CCCC2)cc2cccn12` as the molecule, how does the IC50 [1] read?
Answer: 3080 nM

Question: Which IC50 [1] does the source give for `O=C(c1ccccc1)c1cc(C(=O)N2CCCCC2)cc2cccn12` here?
Answer: 2800 nM

Question: What does the source list for `CC1=NN(c2ccccc2)C(=O)C1` [EDARAVONE]?
Answer: Activity (Mus musculus [28]): 2.8%; Activity (Mus musculus [12]): 40.6%; Activity (Mus musculus [19]): 38.9%; Activity (Mus musculus [25]): 3%

Reference: ChEMBL document CHEMBL6109145, “Indolizine Derivatives Inhibit TRPM2 and Protect against Ischemic Brain Injury with an Extended Treatment Window” (J Med Chem, 2025)
